Reference: article PMC6478789, “A chemical toolbox for the study of bromodomains and epigenetic signaling” (Nature Communications, 2019)

Legend:
EP300 = EP300 (Homo sapiens, UniProt Q09472); experiment: Histone acetyltransferase (HAT) activity assay; assay type: biochemical;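 also: selectivity screen of bromodomain probe compounds against histone acetyltransferases, with enzyme activity given in percent for compounds tested at 1 and 10 µM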
HAT1 = target: T1, HAT1 (Homo sapiens, UniProt O14929); experiment: Histone acetyltransferase (HAT) activity assay; assay type: biochemical;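 also: HAT selectivity screen of BRD probe compounds, enzyme activity in % measured with compound at 1 µM and 10 µM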
T1 sequence (O14929 1-419): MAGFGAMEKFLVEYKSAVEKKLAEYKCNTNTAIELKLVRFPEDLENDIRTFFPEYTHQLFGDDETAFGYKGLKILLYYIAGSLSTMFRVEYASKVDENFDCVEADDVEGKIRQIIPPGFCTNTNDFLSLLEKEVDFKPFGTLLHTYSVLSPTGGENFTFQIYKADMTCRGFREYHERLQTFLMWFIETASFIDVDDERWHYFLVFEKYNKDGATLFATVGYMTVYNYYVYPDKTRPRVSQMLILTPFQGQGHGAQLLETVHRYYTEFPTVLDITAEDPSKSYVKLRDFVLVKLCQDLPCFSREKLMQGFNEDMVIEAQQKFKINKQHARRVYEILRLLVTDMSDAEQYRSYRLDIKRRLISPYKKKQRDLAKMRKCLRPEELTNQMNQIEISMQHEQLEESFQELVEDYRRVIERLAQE

MYST1 = target: T2, MYST1 (Homo sapiens, UniProt Q9H7Z6); experiment: Histone acetyltransferase (HAT) activity assay; assay type: biochemical;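 also: selectivity screen across a panel of histone acetyltransferases, with compounds tested at 1 and 10 µM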
T2 sequence (Q9H7Z6 1-458): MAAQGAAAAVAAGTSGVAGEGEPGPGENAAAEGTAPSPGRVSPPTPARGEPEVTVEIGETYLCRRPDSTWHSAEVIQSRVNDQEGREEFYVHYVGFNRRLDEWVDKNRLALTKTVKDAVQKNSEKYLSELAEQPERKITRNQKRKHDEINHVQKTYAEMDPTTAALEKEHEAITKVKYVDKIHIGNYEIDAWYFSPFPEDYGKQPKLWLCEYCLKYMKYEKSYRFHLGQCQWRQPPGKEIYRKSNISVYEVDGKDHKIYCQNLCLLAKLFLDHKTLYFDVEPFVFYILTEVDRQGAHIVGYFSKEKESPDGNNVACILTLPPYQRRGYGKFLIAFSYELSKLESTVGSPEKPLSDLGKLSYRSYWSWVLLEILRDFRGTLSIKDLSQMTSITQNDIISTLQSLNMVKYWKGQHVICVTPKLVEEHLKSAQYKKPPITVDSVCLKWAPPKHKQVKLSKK

MYST3 = MYST3 (Homo sapiens, UniProt Q92794); experiment: Histone acetyltransferase (HAT) activity assay; assay type: biochemical;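 also: selectivity screen of bromodomain probe compounds across a panel of histone acetyltransferases, read out as enzyme activity in %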
Sequence of MYST3 (Q92794 whole entry, species assumed): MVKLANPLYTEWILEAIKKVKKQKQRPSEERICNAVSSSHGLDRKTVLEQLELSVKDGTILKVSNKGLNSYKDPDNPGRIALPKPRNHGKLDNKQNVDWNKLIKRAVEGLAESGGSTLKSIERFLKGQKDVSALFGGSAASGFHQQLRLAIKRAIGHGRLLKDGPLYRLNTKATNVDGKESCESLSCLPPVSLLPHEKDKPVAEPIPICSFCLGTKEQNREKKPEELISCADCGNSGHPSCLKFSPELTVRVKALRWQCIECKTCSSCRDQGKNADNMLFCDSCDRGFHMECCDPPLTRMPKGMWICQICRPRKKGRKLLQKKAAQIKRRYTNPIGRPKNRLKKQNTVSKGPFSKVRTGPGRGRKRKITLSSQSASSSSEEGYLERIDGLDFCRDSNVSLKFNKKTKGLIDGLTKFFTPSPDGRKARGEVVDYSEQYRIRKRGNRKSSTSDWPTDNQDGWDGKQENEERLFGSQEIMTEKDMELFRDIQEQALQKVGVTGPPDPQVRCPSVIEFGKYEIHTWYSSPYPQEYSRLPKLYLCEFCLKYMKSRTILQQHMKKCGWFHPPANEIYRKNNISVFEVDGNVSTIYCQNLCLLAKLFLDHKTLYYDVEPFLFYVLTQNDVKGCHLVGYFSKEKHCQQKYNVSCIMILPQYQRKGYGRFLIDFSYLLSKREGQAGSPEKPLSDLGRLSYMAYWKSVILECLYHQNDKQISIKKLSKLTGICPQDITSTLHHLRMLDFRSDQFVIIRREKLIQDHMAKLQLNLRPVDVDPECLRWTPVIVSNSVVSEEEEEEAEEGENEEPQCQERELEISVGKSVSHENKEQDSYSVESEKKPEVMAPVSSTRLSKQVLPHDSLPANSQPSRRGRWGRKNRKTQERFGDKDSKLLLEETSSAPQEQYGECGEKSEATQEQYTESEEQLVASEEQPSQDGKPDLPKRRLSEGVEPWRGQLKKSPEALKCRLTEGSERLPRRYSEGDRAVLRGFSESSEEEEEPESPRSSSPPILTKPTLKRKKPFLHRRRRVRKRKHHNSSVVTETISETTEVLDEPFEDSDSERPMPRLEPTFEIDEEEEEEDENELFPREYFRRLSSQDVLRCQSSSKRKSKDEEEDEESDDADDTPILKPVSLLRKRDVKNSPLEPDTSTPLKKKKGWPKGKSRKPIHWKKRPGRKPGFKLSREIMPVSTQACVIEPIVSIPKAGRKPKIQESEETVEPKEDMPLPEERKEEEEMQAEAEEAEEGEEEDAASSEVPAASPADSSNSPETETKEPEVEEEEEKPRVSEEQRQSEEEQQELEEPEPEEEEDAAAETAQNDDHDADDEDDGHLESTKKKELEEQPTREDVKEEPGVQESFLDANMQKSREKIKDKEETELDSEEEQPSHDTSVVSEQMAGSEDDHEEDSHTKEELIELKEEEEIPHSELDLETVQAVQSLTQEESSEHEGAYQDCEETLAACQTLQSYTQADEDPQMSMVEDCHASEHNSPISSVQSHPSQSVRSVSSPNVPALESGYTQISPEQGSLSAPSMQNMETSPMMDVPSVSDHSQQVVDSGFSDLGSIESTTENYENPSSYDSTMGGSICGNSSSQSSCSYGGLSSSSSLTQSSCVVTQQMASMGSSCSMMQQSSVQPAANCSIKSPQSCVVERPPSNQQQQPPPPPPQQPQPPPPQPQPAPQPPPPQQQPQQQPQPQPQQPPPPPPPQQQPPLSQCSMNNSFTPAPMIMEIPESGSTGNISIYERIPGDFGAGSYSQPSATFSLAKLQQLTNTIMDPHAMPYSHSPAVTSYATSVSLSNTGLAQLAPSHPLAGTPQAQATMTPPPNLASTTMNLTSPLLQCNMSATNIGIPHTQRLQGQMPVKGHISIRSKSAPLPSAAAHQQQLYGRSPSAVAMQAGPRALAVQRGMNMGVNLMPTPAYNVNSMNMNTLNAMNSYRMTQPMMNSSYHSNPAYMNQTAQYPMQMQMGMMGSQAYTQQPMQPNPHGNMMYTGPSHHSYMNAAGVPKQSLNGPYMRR

GCN5L2 = GCN5L2 (Homo sapiens, UniProt Q92830); experiment: Histone acetyltransferase (HAT) activity assay; assay type: biochemical;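 also: selectivity screen of BRD probe compounds across a panel of histone acetyltransferases, HAT activity in % with compound at 1 or 10 µM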
ten TNBC cell lines = experiment: High-throughput screening of bromodomain inhibitors in TNBC panel (confluency); assay type: cell-based, human; settings: 3 μM, 7 days
Method: Fig. 6 BRD inhibitors leverage metabolic adaptations induced by glucose transporter I (GLUT1) inhibition in TNBC. a BRD inhibitor screening across ten TNBC cell lines. Cells were treated with indicated BRD inhibitors at 3 μM for 7 days. Confluency was measured using an IncuCyte ZOOM live cell imaging device. Data shown are mean ± s.d. of n = 4 independent cell culture grown and treated cells. A two-sided Student’s t test was used to derive the p-values. b SLC2A1 gene expression in the The Cancer Genome Atlas (TCGA) breast datasets. The cohorts were divided into TNBCs (red) and non-TNBCs (blue) according to PAM50 classification. Gene expression is reported as median-centered expression log2 values. The number of patients (n) per group is indicated. P-values were determined using a Wilcoxon's rank-sum test. c Glucose uptake in MDA-MB-436 cells in response to BAY-876 treatment relative to vehicle. MDA-MB-436 cells were treated with dimethyl sulfoxide (DMSO) or 3 µM BAY-876 for 5 days. […]
TNBC cell lines were seeded in sterile, transparent 384-well plates at 500 cells per well in 50 µl media. […] Cell confluency at 7 days was evaluated using an Incucyte ZOOM live cell imaging device (Essen Bioscence) and analyzed with the Incucyte ZOOM (2016A) software based on phase contrast image.

three TNBC lines = experiment: Combinatorial screen of BRD inhibitors with or without BAY-876 (confluency); assay type: cell-based, human; settings: 3 μM probe + 3 μM BAY-876
Method: Fig. 6 BRD inhibitors leverage metabolic adaptations induced by glucose transporter I (GLUT1) inhibition in TNBC. a BRD inhibitor screening across ten TNBC cell lines. Cells were treated with indicated BRD inhibitors at 3 μM for 7 days. Confluency was measured using an IncuCyte ZOOM live cell imaging device. Data shown are mean ± s.d. of n = 4 independent cell culture grown and treated cells. A two-sided Student’s t test was used to derive the p-values. b SLC2A1 gene expression in the The Cancer Genome Atlas (TCGA) breast datasets. The cohorts were divided into TNBCs (red) and non-TNBCs (blue) according to PAM50 classification. Gene expression is reported as median-centered expression log2 values. The number of patients (n) per group is indicated. P-values were determined using a Wilcoxon's rank-sum test. c Glucose uptake in MDA-MB-436 cells in response to BAY-876 treatment relative to vehicle. MDA-MB-436 cells were treated with dimethyl sulfoxide (DMSO) or 3 µM BAY-876 for 5 days. Graph indicates mean, error bars denote s.d. from three independent assays and p-value was computed using the Benjamini-Hochberg t test; ***p < 0.001. d Effects of BAY-876 treatment on the intracellular acetyl-CoA level. Graph indicates mean, error bars denote s.d. from three independent assays and p-value was computed using the Benjamini-Hochberg t test; ***p < 0.001. e Effects of BAY-876 treatment on intracellular NAD^+/NADH level. Graph indicates the mean, error bars denote s.d. from three independent assays and p-value computed using the Benjamini-Hochberg t test; **p < 0.01. f Immunoblot analysis of H3 and H4 acetylation in MDA-MB-436 cells before and after BAY-876 treatment. P-value computed using the Benjamini-Hochberg t test; ***p < 0.001. g Cell growth effects of BAY-876 treatment on three representative cell lines. n.s. not significant. h Combinatorial screening of BRD inhibitors with or without 3 μM BAY-876 across ten TNBC cell lines. Cell confluency was obtained from the endpoint Incucyte scanning. (Left) Heatmap of the combinatorial screening results; (Right) Cell confluency after treatment with three potential BRDi candidates at 3 μM in the presence or absence of 3 μM BAY-876 in three representative cell lines. Graph indicates mean, error bars denote s.d. from three independent assays and p-values were computed using the Benjamini-Hochberg t test; **p < 0.01; ***p < 0.001. Raw data images are available in Supplementary Fig. 4
(§1) TNBC cell lines were seeded in sterile, transparent 384-well plates at 500 cells per well in 50 µl media. Chemical probes were delivered in dimethyl sulfoxide (DMSO). Cell confluency at 7 days was evaluated using an Incucyte ZOOM live cell imaging device (Essen Bioscence) and analyzed with the Incucyte ZOOM (2016A) software based on phase contrast image.

BRD3(1) = BRD3(1) (Homo sapiens, UniProt Q15059); set-up: purchased; settings: ITC data; ref 7 (suppl.); cited from earlier work
Sequence of BRD3(1) (Q15059 34-140 limits assumed): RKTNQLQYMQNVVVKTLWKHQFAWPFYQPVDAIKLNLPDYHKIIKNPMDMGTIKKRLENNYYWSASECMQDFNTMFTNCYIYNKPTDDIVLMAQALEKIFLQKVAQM

BRD3(2) = BRD3(2) (Homo sapiens, UniProt Q15059); set-up: purchased; settings: ITC data; ref 7 (suppl.); cited from earlier work
Sequence of BRD3(2) (Q15059 306-415 limits assumed): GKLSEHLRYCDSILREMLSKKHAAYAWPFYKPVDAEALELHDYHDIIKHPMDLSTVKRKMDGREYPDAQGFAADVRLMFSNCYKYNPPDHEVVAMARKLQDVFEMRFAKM

BRD2(1) = BRD2(1) (Homo sapiens, UniProt P25440); set-up: purchased; settings: ITC data; ref 7 (suppl.); cited from earlier work
Sequence of BRD2(1) (P25440 74-180 limits assumed): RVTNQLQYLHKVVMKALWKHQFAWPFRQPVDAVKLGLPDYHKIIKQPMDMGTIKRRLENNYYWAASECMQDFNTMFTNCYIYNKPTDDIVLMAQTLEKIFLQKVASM

BRD2(2) = BRD2(2) (Homo sapiens, UniProt P25440); set-up: purchased; method as in ref 7 (suppl.); settings: ITC data; ref 7 (suppl.); cited from earlier work
Sequence of BRD2(2) (P25440 344-453 limits assumed): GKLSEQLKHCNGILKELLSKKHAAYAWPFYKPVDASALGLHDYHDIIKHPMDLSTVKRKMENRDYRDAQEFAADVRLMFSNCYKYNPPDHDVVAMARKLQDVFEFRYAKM

BRDT(1) = BRDT(1) (Homo sapiens, UniProt Q58F21); set-up: purchased; settings: ITC data; ref 7 (suppl.); cited from earlier work
BRDT(2) = BRDT(2) (Homo sapiens, UniProt Q58F21); set-up: purchased; method as in ref 7 (suppl.); settings: ITC data; ref 7 (suppl.); cited from earlier work
MDA-MB-436 cells = experiment: Confluency with BRPF inhibitors and BAY-876; assay type: cell-based, human; settings: 3 μM, 7 days
Method: Graph indicates mean, error bars denote s.d. from eight wells (from two independent assays) and p-value was computed using the Benjamini-Hochberg t test; ***p < 0.001. d Immunoblot validation of BRPF knockdown in MDA-MB-436 cells. e Quantitative real-time PCR (RT-qPCR) validation of BRPF knockdown in MDA-MB-436 cells. […] Raw data images are available in Supplementary Fig. 4
as §1

Sequence of EP300 (Q09472 whole entry, species assumed): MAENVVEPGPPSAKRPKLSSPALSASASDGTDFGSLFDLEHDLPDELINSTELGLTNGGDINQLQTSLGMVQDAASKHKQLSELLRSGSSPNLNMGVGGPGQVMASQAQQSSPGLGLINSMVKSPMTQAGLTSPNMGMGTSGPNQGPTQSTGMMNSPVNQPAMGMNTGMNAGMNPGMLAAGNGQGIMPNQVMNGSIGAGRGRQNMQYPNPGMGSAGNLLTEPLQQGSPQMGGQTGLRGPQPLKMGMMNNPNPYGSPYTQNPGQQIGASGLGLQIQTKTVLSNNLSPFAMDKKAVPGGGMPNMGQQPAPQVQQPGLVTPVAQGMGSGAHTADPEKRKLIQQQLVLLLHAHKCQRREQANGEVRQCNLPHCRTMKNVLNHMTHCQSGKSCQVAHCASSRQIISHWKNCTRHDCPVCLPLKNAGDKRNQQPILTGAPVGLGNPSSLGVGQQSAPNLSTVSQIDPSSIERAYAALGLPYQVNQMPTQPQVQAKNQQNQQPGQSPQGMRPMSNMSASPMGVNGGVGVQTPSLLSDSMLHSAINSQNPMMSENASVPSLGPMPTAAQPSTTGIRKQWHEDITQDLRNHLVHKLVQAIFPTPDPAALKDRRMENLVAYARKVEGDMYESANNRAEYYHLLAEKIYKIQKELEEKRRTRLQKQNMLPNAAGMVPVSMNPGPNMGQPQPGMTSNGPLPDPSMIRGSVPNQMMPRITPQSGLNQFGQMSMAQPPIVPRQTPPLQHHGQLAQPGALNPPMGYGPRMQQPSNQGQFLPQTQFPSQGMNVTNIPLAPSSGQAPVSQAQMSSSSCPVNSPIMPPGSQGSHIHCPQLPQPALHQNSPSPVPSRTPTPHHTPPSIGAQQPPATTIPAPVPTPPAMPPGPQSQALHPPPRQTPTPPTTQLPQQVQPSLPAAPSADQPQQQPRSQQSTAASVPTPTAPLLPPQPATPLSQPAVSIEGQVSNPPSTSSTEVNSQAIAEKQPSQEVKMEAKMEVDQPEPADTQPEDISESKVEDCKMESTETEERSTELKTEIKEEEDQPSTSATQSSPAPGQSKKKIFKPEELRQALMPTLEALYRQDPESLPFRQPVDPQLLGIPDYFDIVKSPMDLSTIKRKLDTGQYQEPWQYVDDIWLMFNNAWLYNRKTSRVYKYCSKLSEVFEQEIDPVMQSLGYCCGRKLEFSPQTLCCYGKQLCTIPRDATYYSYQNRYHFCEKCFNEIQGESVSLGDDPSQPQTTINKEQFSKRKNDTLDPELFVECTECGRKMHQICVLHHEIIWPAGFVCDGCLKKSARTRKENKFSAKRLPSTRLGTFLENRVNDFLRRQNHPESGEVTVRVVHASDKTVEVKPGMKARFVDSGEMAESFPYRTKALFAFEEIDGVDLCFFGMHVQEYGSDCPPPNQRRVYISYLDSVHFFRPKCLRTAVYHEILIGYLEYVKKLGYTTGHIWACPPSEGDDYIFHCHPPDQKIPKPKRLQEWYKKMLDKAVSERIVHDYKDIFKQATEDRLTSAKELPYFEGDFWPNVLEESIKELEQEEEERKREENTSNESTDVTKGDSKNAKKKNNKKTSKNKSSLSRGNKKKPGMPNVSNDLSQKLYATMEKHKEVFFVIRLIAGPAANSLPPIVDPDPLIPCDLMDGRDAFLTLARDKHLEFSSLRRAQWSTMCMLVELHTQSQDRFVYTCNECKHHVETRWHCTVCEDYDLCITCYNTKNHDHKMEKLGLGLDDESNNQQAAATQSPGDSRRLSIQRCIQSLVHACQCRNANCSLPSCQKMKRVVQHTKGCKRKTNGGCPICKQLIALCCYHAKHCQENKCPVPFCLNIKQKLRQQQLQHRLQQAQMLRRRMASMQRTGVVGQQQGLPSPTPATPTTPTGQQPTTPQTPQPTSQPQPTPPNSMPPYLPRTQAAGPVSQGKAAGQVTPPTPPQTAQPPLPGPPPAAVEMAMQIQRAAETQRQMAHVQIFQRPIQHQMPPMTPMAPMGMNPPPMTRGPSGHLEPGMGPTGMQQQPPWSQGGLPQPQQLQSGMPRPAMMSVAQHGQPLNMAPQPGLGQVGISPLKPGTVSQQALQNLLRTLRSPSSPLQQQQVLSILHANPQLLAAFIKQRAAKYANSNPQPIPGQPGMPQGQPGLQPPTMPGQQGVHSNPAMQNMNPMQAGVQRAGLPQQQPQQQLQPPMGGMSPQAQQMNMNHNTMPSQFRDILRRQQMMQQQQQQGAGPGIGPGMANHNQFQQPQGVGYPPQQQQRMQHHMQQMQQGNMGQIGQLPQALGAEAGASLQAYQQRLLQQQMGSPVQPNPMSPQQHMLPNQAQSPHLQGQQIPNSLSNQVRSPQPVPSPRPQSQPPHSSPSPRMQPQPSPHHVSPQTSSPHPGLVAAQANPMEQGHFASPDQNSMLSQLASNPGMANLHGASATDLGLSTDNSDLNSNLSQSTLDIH

SMILES	HATs Activity (%) (EP300; 1µM)	HATs Activity (%) (EP300; 10µM)	HATs Activity (%) (HAT1; 1µM)	HATs Activity (%) (HAT1; 10µM)	HATs Activity (%) (MYST1; 1µM)	HATs Activity (%) (MYST1; 10µM)	HATs Activity (%) (MYST3; 1µM)	HATs Activity (%) (MYST3; 10µM)	HATs Activity (%) (GCN5L2; 1µM)	HATs Activity (%) (GCN5L2; 10µM)	anti-proliferative effect (confluency) (ten TNBC cell lines)	viability in combination with BAY-876 (three TNBC lines)	Kd (BRD3(1)) [nM]	Kd (BRD3(2)) [nM]	Kd (BRD2(1)) [nM]	Kd (BRD2(2)) [nM]	Kd (BRDT(1)) [nM]	Kd (BRDT(2)) [nM]	synergy with BAY-876 (MDA-MB-436 cells)
COc1ccccc1S(=O)(=O)Nc1ccc2c(c1)CN(C)C(=O)N2 [PFI-1]	99	100	102	93	101	95	105	86	96	93	strong anti-proliferative effects	significant decrease in viability	80	76	108	144	85	221	–
COc1ccccc1C(=O)Nc1cc2c(cc1N1CCCC1)n(C)c(=O)n2C [PFI-4]	–	–	–	–	–	–	–	–	–	–	–	–	–	–	–	–	–	–	no significant effect
